Laboratory results from US20140335132A1, “BINDING DRUGS WITH NANOCRYSTALLINE CELLULOSE (NCC)” (priority 2010, published 2014).
Where a name gives a salt, the structure may show the parent alone.

Columns and labels:
[1] = Binding of hydrophilic drugs to NCC; type: physicochemical; conditions: for final mass of drug bound to NCC for the release studies: 2.5 mg NCC, distilled water then 10 mM NaCl, DOX solution 325 μg/ml, TET solution 1000 μg/ml; for binding efficiency / maximum mass of drug bound to NCC: 2 mg NCC
Procedure: NCC Drug Binding Procedure: Doxorubicin hydrochloride (DOX) or tetracycline hydrochloride (TET), were dissolved in either 10 mM phosphate buffered saline (PBS) at pH 7.4, or dH2O with increasing drug concentrations ([drugadded]). Drug solutions (1.5 ml) were added to 0.5 ml of NCC suspension in a 2 ml microcentrifuge tube and incubated at 37° C. with tumbling shaking at 8 rpm for 30 minutes. Suspensions containing PBS or NaCl produced flocculated NCC/drug suspensions, which were centrifuged at 18000×g for 10 minutes to pellet the NCC and bound drug. The concentration of unbound drug in the supernatant ([drugunbound]) was assayed using a Varian 50 Bio UV Vis spectrophotometer (Varian, Inc., Mississauga, Ont.) using wavelengths of 482 nm and 364 nm for DOX and TET, respectively. The concentration of drug bound to the NCC ([drugbound]) was calculated using the following equation:
[drugbound]=[drugadded]−[drugunbound] (1)
In this case, the NCC/drug suspensions were transferred to dialysis bags with a molecular weight cut off of 10000 Da (Spectrum Laboratories, Inc., Rancho Dominguez, Calif.) and dialysed against distilled water overnight in the dark at 4° C. The concentration of unbound drug in the dialysate was determined by UV Vis spectroscopy, allowing for the calculation of the amount of drug bound to the NCC according to equation (1).

[2] = In vitro release of drugs from NCC in PBS; type: physicochemical; conditions: 10 mM PBS, 37° C.
Procedure: (§1) Drug Release Procedure: DOX was bound to NCC for release studies by incubating a solution of 325 μg/ml of DOX in distilled water with a suspension containing 2.5 mg of NCC. In order to flocculate the NCC and allow for separation of the NCC/DOX nanocomplexes, NaCl was added to a final concentration of 10 mM. The suspension was centrifuged at 18000×g for 10 minutes to pellet the NCC/DOX and the drug binding was determined by UV Vis spectroscopy as described above. […] NCC/drug nanocomplexes with DTX, PTX and ETOP were prepared as described for the drug binding studies. The concentration of DTX and PTX that was incubated with the NCC suspension was 200 μg/ml and the concentration of ETOP was 100 μg/ml. […] The drug loaded NCC samples were resuspended in 1 ml of PBS followed by incubation at 37° C. with tumbling at 8 rpm. At predetermined times the suspensions were centrifuged at 18000×g for 10 minutes and the supernatant was removed for drug quantitation by UV Vis for DOX and TET or HPLC for DTX, PTX and ETOP, as previously described. At each sampling time point, fresh PBS was added to the tubes and the NCC/drug nanocomplexes were resuspended.

[3] = Binding of hydrophobic drugs to NCC/CTAB nanocomplexes; type: physicochemical; conditions: for saturation of binding / binding efficiency to NCC/CTAB nanocomplexes: 12.9 mM CTAB, 2.5 mg NCC, 10 mM NaCl; for binding efficiency to NCC/CTAB nanocomplexes: 25° C., up to 100 μg of drug added; for final mass of drug bound to NCC/CTAB for the release studies: DTX and PTX incubated at 200 μg/ml, ETOP at 100 μg/ml
Procedure: In order to solubilize the hydrophobic drugs paclitaxel (PTX), docetaxel (DTX) and etoposide (ETOP), the surface of the NCC was first modified with CTAB. This was achieved by incubating increasing amounts of CTAB with 2.5 mg of NCC so the final CTAB concentration varied from 0 mM to 12.9 mM. An aliquot of 100 mM NaCl was added, resulting in a final NaCl concentration of 10 mM, which facilitated flocculation and subsequent separation of the NCC/CTAB nanocomplexes by centrifugation as described above. The NCC/CTAB was incubated with stock solutions of the drugs with increasing concentrations. Since these drugs are characterized by low aqueous solubility, they were solubilized in a minimal amount of either DMSO or diblock copolymer in 10 mM NaCl as previously described. The drug/NCC/CTAB suspensions were incubated at 25° C. with tumbling at 8 rpm for 30 minutes then centrifuged at 18000×g for 10 minutes to pellet the NCC/CTAB and bound drug. The amount of unbound drug in the supernatant was determined by HPLC using a Waters HPLC system with Millennium software and UV Vis detection. Separation was achieved using a Novapak™ C18 column with 20 μl injections and a mobile phase flow rate of 1 ml/min. The DTX and PTX mobile phase consisted of 58% acetonitrile, 37% dH2O and 5% methanol with detection at 232 nm. The mobile phase for ETOP was 27% acetonitrile, 1% acetic acid and 72% dH2O and detection was at 286 nm. Calibration curves were prepared for all drugs and were linear in the desired concentration range. The amount of drug bound to the NCC/CTAB was determined using equation (1).

[4] = In vitro release of drugs from NCC/CTAB nanocomplexes in PBS; type: physicochemical; conditions: 12.9 mM CTAB, 10 mM PBS, 37° C.
Procedure: as §1

[5] = Retention of fluorescein bound to NCC/CTAB in aqueous media; type: physicochemical; conditions: upon resuspension or dilution in aqueous media
[6] = system: KU-7 cells; experiment: Cell binding and uptake of NCC/CTAB/fluorescein (fluorescence, confocal microscopy); type: cell-based
Procedure: FIGS. 10A, B, C and D are confocal micrographs of KU-7 cells incubated for 2 hours with NCC/CTAB/fluoroscein system with a fluorescein concentration of 0.25 mg/ml. (A) White light image of KU-7 cells. (B) Staining of the nuclei with DAPI. (C) Fluorescein in the cytoplasm. (D) An overlay of images B and C.

[7] = dispersion medium PBS 10 mM, pH 7.4
[8] = dispersion medium distilled water

| SMILES | saturation of binding [3] | binding efficiency to NCC/CTAB nanocomplexes [3] | final mass of drug bound to NCC/CTAB for the release studies [3] [µg] | bound drug released within the first hour [4] | total bound drug released in two days [4] [%] | final mass of drug bound to NCC for the release studies [1] [µg] | binding efficiency [1, 7] [%] | maximum mass of drug bound to NCC [1, 7] [µg] | binding efficiency [1, 8] [%] | maximum mass of drug bound to NCC [1, 8] [µg] | bound drug released in four hours [2] | bound drug released by one day (plateau) [2] [%] | other results |
| --- | --- | --- | --- | --- | --- | --- | --- | --- | --- | --- | --- | --- | --- |
| COc1cccc2c1C(=O)c1c(O)c3c(c(O)c1C2=O)C[C@@](O)(C(=O)CO)C[C@@H]3O[C@H]1C[C@H](N)[C@H](O)[C@H](C)O1 [DOX, Doxorubicin hydrochloride] | – | – | – | – | – | 212 ± 3.5 | 65 | 122 | 83 | 1667 | ~85% | 87 | – |
| CC(=O)O[C@@]12CO[C@@H]1C[C@H](O)[C@@]1(C)C(=O)[C@H](O)C3=C(C)[C@@H](OC(=O)[C@H](O)[C@@H](NC(=O)OC(C)(C)C)c4ccccc4)C[C@@](O)([C@@H](OC(=O)c4ccccc4)[C@H]21)C3(C)C [DTX, docetaxel] | approximately 200 μg | approximately 90% | 184 ± 4.8 | Approximately 26% | 59 | – | – | – | – | – | – | – | – |
| COc1cc([C@@H]2c3cc4c(cc3[C@@H](O[C@@H]3O[C@@H]5CO[C@@H](C)O[C@H]5[C@H](O)[C@H]3O)[C@H]3COC(=O)[C@H]23)OCO4)cc(OC)c1O [ETOP, etoposide] | – | 48% | 63 ± 0.1 | – | – | – | – | – | – | – | – | – | maximum mass of drug bound to NCC/CTAB ([3]; 100 μg of drug added): 48 µg; total drug released over four days ([4]; four days): 75% |
| CC(=O)O[C@H]1C(=O)[C@@]2(C)[C@H]([C@H](OC(=O)c3ccccc3)[C@]3(O)C[C@H](OC(=O)[C@H](O)[C@@H](NC(=O)c4ccccc4)c4ccccc4)C(C)=C1C3(C)C)[C@]1(OC(C)=O)CO[C@@H]1C[C@@H]2O [PTX, paclitaxel] | approximately 200 μg | approximately 90% | 149 ± 4.8 | 20% | 44 | – | – | – | – | – | – | – | – |
| CN(C)[C@@H]1C(O)=C(C(N)=O)C(=O)[C@@]2(O)C(O)=C3C(=O)c4c(O)cccc4[C@@](C)(O)[C@H]3C[C@@H]12 [TET, tetracycline hydrochloride] | – | – | – | – | – | 187 ± 2.0 | 25 | 251 | 48 | 959 | approximately 90% | 93 | drug loading ([1]; almost 500 μg on 2 mg of NCC): 20 % w/w; mass of drug bound to NCC ([1]; bound to 2 mg of NCC (FIG. 2)): ~500 µg |
| O=C1OC2(c3ccc(O)cc3Oc3cc(O)ccc32)c2ccccc21 [fluorescein] | – | – | – | – | – | – | – | – | – | – | – | – | fluorescein remaining bound to NCC/CTAB [5]: More than 95%; time by which cellular uptake of fluorescein reached a maximum [6]: ≤ 2 h |
